Consider 27 compounds from article PMC10618793, “Investigating cannabinoids as P2X purinoreceptor 4 ligands by using surface plasmon resonance and computational docking” (Heliyon, 2023).

Molecules are shown by their SMILES. Values joined by “and” are separate entries in the source; they are usually repeats but may differ in a detail not shown here. Identical values can stand only once. “Also recorded” adds a separate entry of the source. Like-named read-outs stand apart in the source and are kept apart here.

Assay [1] concerns the target T1, P2X4 receptor (Homo sapiens, UniProt Q99571).
T1 construct: His tag (N); purchased MyBioSource, Inc (San Diego, CA, USA)
T1 sequence (Q99571 77-338): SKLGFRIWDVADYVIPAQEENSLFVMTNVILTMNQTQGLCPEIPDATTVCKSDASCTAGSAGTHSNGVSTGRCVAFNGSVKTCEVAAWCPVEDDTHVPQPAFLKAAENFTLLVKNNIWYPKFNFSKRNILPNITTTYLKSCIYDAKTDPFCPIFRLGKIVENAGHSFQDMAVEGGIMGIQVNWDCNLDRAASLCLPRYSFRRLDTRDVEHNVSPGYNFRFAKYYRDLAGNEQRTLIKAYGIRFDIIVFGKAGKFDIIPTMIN
The assay is described as follows: Surface plasmon resonance competitive binding assay. The conditions noted are these: for Response Unit (RU): 5-BDBD alone, 1:1 combination, 5 or 1 μM; for experimental binding response unit (RU): validation BX430 vs 5-BDBD, single binders at 1 μM and 1:1 combination, Fig. 4B; for type of binding on P2X4 relative to 5-BDBD: experimental 1:1 combination RU compared with theoretical RU values. How it is done: Recombinant human P2X4 (500 μg/mL stock solution in Dnase free water) was diluted to 40 μg/mL in sodium acetate 4.0. The protein was immobilized on a CM5 chip based on an amine coupling method as previously described with minor modification. Briefly, the immobilization method involved five phases. First, a stable baseline was established, and a response was observed. […] Both binding association and dissociation were identified as ethanolamine hydrochloride (1 M; pH 8.5) deactivated unreacted NHS-esters and removed electrostatically bound ligands with a contact time of 420 s and a flow rate of 10 μL/min. Completion of all five phases indicated successful immobilization of the P2X4 protein on the SPR sensor chip.
A competitive SPR binding assay was designed to narrow down the cannabinoids’ binding site on P2X4. […] Both compounds were dissolved in DMSO at 10 mM and diluted to 10 μM in PBS (20 mM). […] Subsequently, they were diluted to a working concentration of 10 μM using PBS (20 mM) as the diluent. For individual runs, each antagonist was further diluted with the running buffer, composed of PBS (20 mM) with 3 % DMSO, resulting in a final concentration of 1 μM. To evaluate the interaction of both antagonists simultaneously, a 1:1 combination ratio was employed. Glycine, at a pH of 2.5 was utilized as the regeneration buffer. Additionally, solvent correction cycles were incorporated, consisting of eight correction points ranging from 2.5 % to 3.8 % of DMSO content, ensuring accurate data interpretation during the experimental procedure.
Compounds were initially prepared at a concentration of 10 mM in DMSO and subsequently diluted in PBS (20 mM) to either 10 or 2 μM, depending on the binding response unit (RU) observed during the binding screening assays. For individual evaluations, compounds were diluted in a 1:1 combination ratio with the running buffer, PBS (20 mM) + 3 % DMSO, to either 5 or 1 μM.
These mixtures were subsequently diluted to either 5 or 1 μM using the running buffer.
The theoretical non-competitive value was calculated as the sum of the experimental RU values of the cannabinoid and BX430, or the cannabinoid and 5-BDBD. The combined experimental RU value was compared to both the competitive and non-competitive theoretical RU values to determine the type of binding.
In general terms: In SPR one partner is held on a chip, and binding of the other changes the refractive index at the surface.

The test system of assay [2] is human P2X4. The conditions noted are these: HEK293 cells expressing human P2X4; cited from earlier work.
The target in assay [3] is T1, P2X4 receptor. The assay is described as follows: Surface plasmon resonance binding screening assay. The note with it: for Kd / koff / kon: SPR Biacore T200, P2X4 immobilized on CM5 chip, 1:1 binding model, n.d. = not detectable; for Kd / koff / kon / binding affinity with P2X4 (in words): 0.4-300 μM; for koff: read-out: Koff (dissociation rate); for kon: read-out: Kon (association rate); for RU (Response Units) values compared with theoretical Rmax / binding affinity with P2X4 (in words): SPR screening; for RU (Response Units) values compared with theoretical Rmax: attributed to matrix binding effects; for association/dissociation phase with P2X4 (sensorgram, in words): SPR screening sensorgrams, Fig. 3.

For assay [4], the system named is P2X4. Set-up: method as in PMID 28588493. The conditions noted are these: selective non-competitive (allosteric) antagonist of P2X4; cited from earlier work.
[5] abbreviates: KD (equilibrium dissociation constant).
The mark [6] stands for this setting: read-out: KD (equilibrium dissociation constant).

Broadly, the IC50 is the midpoint of a concentration-inhibition curve. On to `O=C1CN=C(c2cccc(Br)c2)c2oc3ccccc3c2N1` [5-BDBD, reference compound], for which the “Response Unit (RU)” value came out at 5.8 RU in assay [1] (Fig. 6A: CBD alone) and 6.4 RU in assay [1] (Fig. 6E: CBV alone). For the same compound, in assay [1], the “experimental binding response unit (RU)” value stood at 34.9 RU. The IC50 in assay [2] was […].
As usually defined, the Kd is a measure of binding affinity in units of concentration. In general, koff refers to the rate constant with which the complex falls apart. Usually kon stands for a measure of how fast the partners come together. For `C=C(C)[C@@H]1C[C@H](O)C(C)=C[C@H]1c1c(O)cc(CCCCC)cc1O` [6α–OH–CBD, 6α-hydroxy cannabidiol], the Kd in assay [3] (setting [5]) is 340 µM and > 10 µM. In addition, the Kd in assay [3] (setting [6]) was determined as 337 µM. Further, in assay [3], the koff was determined as 0.427 s⁻¹, the kon is 1270 M⁻¹ s⁻¹ and the “RU (Response Units) values compared with theoretical Rmax” value (from here on “RU … compared with theoretical Rmax”) is “higher than the theoretical Rmax”.
In turn, `CCCCCc1cc(O)c2c(c1)OC(C)(C)C1CCC(CO)=CC21` (stereo not drawn) [11-OH-THC] yielded a dissociation constant (Kd) in assay [3] (setting [5]) of 6.31 µM. For the same compound, in assay [3], the koff turned out to be 0.0742 s⁻¹ and the kon was 11800 M⁻¹ s⁻¹.
Regarding `CC(C)c1cc(Br)c(NC(=O)Nc2cccnc2)c(Br)c1` [BX430, reference compound], in assay [1], the “experimental binding response unit (RU)” value came out at 22.5 RU. Besides, in assay [4], the IC50 is 0.54 µM.
On to `CCCCCc1cc(O)c2c(c1)OC(C)(CCC=C(C)C)C=C2` (stereo not drawn) [CBC, cannabichromene], for which the “binding affinity with P2X4 (in words)” value in assay [3] was “did not demonstrate any binding affinity”.
Still for that read-out and setting: the result for `CCCc1cc(O)c2c(c1)OC(C)(CCC=C(C)C)C=C2` (stereo not drawn) [CBCV, cannabichromevarin] reads “did not demonstrate any binding affinity”.
Turning to `C=C(C)[C@@H]1CCC(C)=C[C@H]1c1c(O)cc(CCCCC)cc1O` [CBD, cannabidiol], the “Response Unit (RU)” value in assay [1] (Fig. 6A: CBD alone) is given as 6.9 RU. Moreover, in assay [1], the “type of binding on P2X4 relative to 5-BDBD” value was “competitive P2X4-binders; also recorded: competitive binding”. In assay [3] (setting [5]), this compound yielded a Kd of 1 µM. Moreover, the Kd in assay [3] (setting [6]) came to 1.04 µM. For the same compound, in assay [3], the koff is 0.02 s⁻¹; the kon came to 19200 M⁻¹ s⁻¹; the “association/dissociation phase with P2X4 (sensorgram, in words)” value (shortened to “association/dissociation phase with P2X4”) is given as “slow dissociation phase”.
For the compound `C=C(C)[C@@H]1CCC(C)=C[C@H]1c1c(O)cc(CCCCC)c(C(=O)O)c1O` [CBDA, cannabidiolic acid], the “binding affinity with P2X4 (in words)” value in assay [3] was “did not demonstrate any binding affinity”.
Regarding `C=C(C)[C@@H]1CCC(C)=C[C@H]1c1c(O)cc(CCCCC)c(C(=O)OC)c1O` [CBDAME, cannabidiolic acid methyl ester], the “binding affinity with P2X4 (in words)” value in assay [3] was “did not demonstrate any binding affinity”.
Regarding `C=C(C)C1CCC(C)=CC1c1c(O)cc(CCCC)cc1O` (stereo not drawn) [CBDB, cannabidibutol], in assay [3], the “binding affinity with P2X4 (in words)” value is “did not demonstrate any binding affinity”.
Take `C=C(C)C1CCC(C)=CC1c1c(O)cc(CCCCCCC)cc1O` (stereo not drawn) [CBDP, cannabidiphorol]: the “binding affinity with P2X4 (in words)” value in assay [3] was “did not demonstrate any binding affinity”.
In the case of `C=C(C)[C@@H]1CCC(C)=C[C@H]1c1c(O)cc(CCC)cc1O` [CBDV, cannabidivarin], the results for the dissociation constant (Kd) in assay [3] (setting [5]) and in assay [3] (setting [6]) were 9.9 µM and 9.91 µM, respectively. Besides, the koff in assay [3] is 0.12 s⁻¹. Also, the kon in assay [3] amounted to 12100 M⁻¹ s⁻¹.
On to `CCCCCc1cc(O)c(C/C=C(\C)CCC=C(C)C)c(O)c1` [CBG, cannabigerol], for which the “binding affinity with P2X4 (in words)” value in assay [3] is “did not demonstrate any binding affinity”.
As for `CCCCCc1cc(O)c(C/C=C(\C)CCC=C(C)C)c(O)c1C(=O)O` [CBGA, cannabigerolic acid], the Kd in assay [3] (setting [5]) was 140 µM and > 10 µM. Moreover, the Kd in assay [3] (setting [6]) amounted to 144 µM. In assay [3], the koff turned out to be 0.119 s⁻¹; the kon was found to be 824 M⁻¹ s⁻¹; the “association/dissociation phase with P2X4” value is “slow association and dissociation phases”.
As for `CCCCCc1cc(O)c(C/C=C(\C)CCC=C(C)C)c(OC)c1` [CBGM, cannabigerol monomethyl ether], the “binding affinity with P2X4 (in words)” value in assay [3] is recorded as “did not demonstrate any binding affinity”.
Turning to `CC(C)=CCC/C(C)=C/Cc1c(O)cc(C)c(C(=O)O)c1O` [CBGOA, cannabigerorcinic acid], in assay [3] (setting [5]), the Kd was 140 µM and > 10 µM. For the same compound, the Kd in assay [3] (setting [6]) is 138 µM. Further, in assay [3], the koff came to 0.375 s⁻¹, the kon was 2720 M⁻¹ s⁻¹ and the “RU … compared with theoretical Rmax” value was “higher than the theoretical Rmax”.
Take `CCCc1cc(O)c(C/C=C(\C)CCC=C(C)C)c(O)c1` [CBGV, cannabigerovarin]: the “association/dissociation phase with P2X4” value in assay [3] is “slow dissociation phase”.
Take `CCCc1cc(O)c(C/C=C(\C)CCC=C(C)C)c(O)c1C(=O)O` [CBGVA, cannabigerovarinic acid]: the Kd in assay [3] (setting [6]) worked out at 92 µM. Moreover, in assay [3], the koff is 0.174 s⁻¹; the kon worked out at 1890 M⁻¹ s⁻¹; the “association/dissociation phase with P2X4” value was “slow association and dissociation phases”; the “RU … compared with theoretical Rmax” value is “higher than the theoretical Rmax”.
For `CCCCCc1cc(O)c2c(c1)OC1(C)CCC3C1C2C3(C)C` (stereo not drawn) [CBL, cannabicyclol], the “binding affinity with P2X4 (in words)” value in assay [3] was “did not demonstrate any binding affinity”.
`CCCCCc1cc(O)c2c(c1)OC(C)(C)c1ccc(C)cc1-2` [CBN, cannabinol]: in assay [3], the “binding affinity with P2X4 (in words)” value is “did not demonstrate any binding affinity”.
`C=C(C)c1ccc(C)cc1-c1c(O)cc(CCCCC)cc1O` [CBND, cannabinodiol]: the Kd in assay [3] (setting [5]) came out at 84 µM. For the same compound, in assay [3] (setting [6]), the Kd turned out to be 84.2 µM. Also, in assay [3], the koff was 0.128 s⁻¹, the kon came to 1520 M⁻¹ s⁻¹ and the “RU … compared with theoretical Rmax” value is given as “higher than the theoretical Rmax”.
In the case of `CCCc1cc(O)c2c(c1)OC(C)(C)c1ccc(C)cc1-2` [CBV, cannabivarin], the “Response Unit (RU)” value in assay [1] (Fig. 6E: CBV alone) stood at 0.9 RU. In addition, the “type of binding on P2X4 relative to 5-BDBD” value in assay [1] was “competitive P2X4-binders; also recorded: competitive binding”. In addition, the Kd in assay [3] (setting [5]) is 16.4 µM. For the same compound, in assay [3], the koff is 0.0405 s⁻¹; the kon turned out to be 2470 M⁻¹ s⁻¹; the “association/dissociation phase with P2X4” value was “slow dissociation phase”.
In assay [3] (setting [5]), `CCCCCc1cc2c(c(O)c1C(=O)O)[C@@H]1C=C(C)CC[C@H]1C(C)(C)O2` [THCA-A, Δ^9-tetrahydrocannabinolic acid A] came in with a Kd of 117 µM. Besides, in assay [3], the koff is 0.101 s⁻¹; the kon is 866 M⁻¹ s⁻¹; the “association/dissociation phase with P2X4” value is “slow association and dissociation phases”; the “RU … compared with theoretical Rmax” value was “higher than the theoretical Rmax”.
Turning to `CCCCc1cc(O)c2c(c1)OC(C)(C)C1CCC(C)=CC21` (stereo not drawn) [THCB, Δ^9-tetrahydrocannabibutol], the “binding affinity with P2X4 (in words)” value in assay [3] is given as “did not demonstrate any binding affinity”.
Take `CCCCCCCc1cc(O)c2c(c1)OC(C)(C)C1CCC(C)=CC21` (stereo not drawn) [THCP, Δ^9-tetrahydrocannabiphorol]: in assay [3], the “binding affinity with P2X4 (in words)” value is listed as “did not demonstrate any binding affinity”.
`CCCc1cc(O)cc(O)c1C(=O)O` [Varinolic acid, varinolic acid]: the “binding affinity with P2X4 (in words)” value in assay [3] is listed as “did not demonstrate any binding affinity”.
In the case of `CCCCCc1cc2c(c(O)c1C(=O)O)[C@@H]1CC(C)=CC[C@H]1C(C)(C)O2` [Δ^8-THCA-A, Δ^8-trans-tetrahydrocannabinolic acid A], the Kd in assay [3] (setting [5]) is 76 µM and 76.4 µM. Besides, in assay [3], the koff came to 0.0812 s⁻¹; the kon was 1060 M⁻¹ s⁻¹; the “association/dissociation phase with P2X4” value was “slow association and dissociation phases”; the “RU … compared with theoretical Rmax” value is “higher than the theoretical Rmax”.
